Measured values from patent US20120142690A1, “Substituted piperidines” (BAYER PHARMA AKTIENGESELLSCHAFT, priority 2009, published 2012).

Target: T1, human protease activated receptor 1 (PAR-1) (Homo sapiens, UniProt P25116)
T1 construct: the cell stably expresses the endogenous human PAR-1 receptor; endogenous in cells; host or cells: HEK293-derived recombinant cell line that constitutively expresses mitochondrial aequorin
T1 sequence (P25116 22-425): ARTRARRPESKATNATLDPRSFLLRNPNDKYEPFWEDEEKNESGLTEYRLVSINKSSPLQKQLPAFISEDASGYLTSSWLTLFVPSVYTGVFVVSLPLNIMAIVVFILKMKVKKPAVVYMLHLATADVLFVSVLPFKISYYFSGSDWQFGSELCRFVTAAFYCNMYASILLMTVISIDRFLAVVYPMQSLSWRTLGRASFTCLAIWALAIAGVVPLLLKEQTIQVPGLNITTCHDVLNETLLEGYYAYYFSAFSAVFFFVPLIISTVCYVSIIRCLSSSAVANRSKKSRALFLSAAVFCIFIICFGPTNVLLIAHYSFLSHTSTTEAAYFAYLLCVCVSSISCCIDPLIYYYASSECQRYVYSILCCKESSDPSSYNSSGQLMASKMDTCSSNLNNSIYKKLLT
Experiment: Cellular functional in vitro test (aequorin luminescence, PAR-1 test cell)
Type: cell-based
Details: recombinant HEK293-derived cell line expressing aequorin; PAR-1 agonist at EC50; calcium-dependent luminescence
From the text: 1.a) Cellular Functional In Vitro Test
A recombinant cell line is used to identify antagonists of the human protease activated receptor 1 (PAR-1) and to quantify the activity of the substances described herein. The cell is originally derived from a human embryonal kidney cell (HEK293; ATCC: American Type Culture Collection, Manassas, Va. 20108, USA). The test cell line constitutively expresses a modified form of the calcium-sensitive photoprotein acquorin which, after reconstitution with the cofactor coelenterazine, emits light when the free calcium concentration in the inner mitochondrial compartment is increased (Rizzuto R, Simpson A W, Brini M, Pozzan T.; Nature 1992, 358, 325-327). Additionally, the cell stably expresses the endogenous human PAR-1 receptor and the endogenous purinergic receptor P2Y2. The resulting PAR-1 test cell responds to stimulation of the endogenous PAR-1 or P2Y2 receptor with an intracellular release of calcium ions, which can be quantified through the resulting acquorin luminescence with a suitable luminometer (Milligan G, Marshall F, Rees S, Trends in Pharmacological Sciences 1996, 17, 235-237). […]
Test procedure: The cells are plated out two days (48 h) before the test in culture medium (DMEM F12, supplemented with 10% FCS, 2 mM glutamine, 20 mM HEPES, 1.4 mM pyruvate, 0.1 mg/ml gentamycin, 0.15% Na bicarbonate; BioWhittaker Cat.#BE04-687Q; B-4800 Verviers, Belgium) in 384-well microtitre plates and kept in a cell incubator (96% atmospheric humidity, 5% v/v CO2, 37° C.). […] The test substances are then pipetted onto the microtitre plate, and 5 minutes after the transfer of the test substances into the wells of the microtitre plate the plate is transferred into the luminometer, a PAR-1 agonist concentration which corresponds to EC50 is added and the resulting light signal is immediately measured in the luminometer. To distinguish an antagonist substance action from a toxic action, the endogenous purinergic receptor is immediately subsequently activated with agonist (ATP, final concentration 10 μM) and the resulting light signal is measured.

SMILES | IC50 [nM]
COc1ccccc1-c1ccc(/C=C/C2CC(c3ccc(C(F)(F)F)cc3)CN(C(=O)N3CCOCC3)C2)nc1 (racemic) [Example 7, (3-{(E)-2-[5-(2-Methoxyphenyl)pyridin-2-yl]vinyl}-5-[4-(trifluoromethyl)phenyl]piperidin-1-yl)-(morpholin-4-yl)methanone] | 1.9
O=C(N1CCOCC1)N1CC(/C=C/c2ccc(-c3cccc(Cl)c3)cn2)CC(c2ccc(C(F)(F)F)cc2)C1 (racemic) [Example 9, (3-{(E)-2-[5-(3-Chlorophenyl)pyridin-2-yl]vinyl}-5-[4-(trifluoromethyl)phenyl]piperidin-1-yl)-(morpholin-4-yl)methanone] | 2.2
O=C(N1CCOCC1)N1CC(/C=C/c2ccc(-c3cccc(C(F)(F)F)c3)cn2)CC(c2ccc(C(F)(F)F)cc2)C1 (single isomer, unassigned) [Example 5, Morpholin-4-yl{3-[4-(trifluoromethyl)phenyl]-5-[(E)-2-{5-[3-(trifluoromethyl)phenyl]pyridin-2-yl}vinyl]piperidin-1-yl}methanone] | 2
